Read-outs that look alike come from different tables or passages of the source. Bridge positions count the residues as written; N and C are the ends. Square brackets hold non-standard residues; d marks the D form. Peptide text beside a SMILES is read from it. Hyp = O=C(O)[C@@H]1C[C@@H](O)CN1
Columns and labels:
[1] = Physical stability of peptide analogues (Thioflavin T fibrillation); format: physicochemical; details: maximum ThT signal normalized between hAMY maximum and buffer background; 40° C., shaking, four days; pH 7 per table title
Method in brief: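 Samples are stressed at 40 °C for four days, being shaken at 700 rpm before each 10-min fluorescence reading of 4 μM Thioflavin T. Buffers were pH 4 acetate or pH 7 phosphate. Reported values are smoothed maximum ThT signals as a percentage of the hAMY-to-background range.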

[2] = biological target: hAM1 receptor (Homo sapiens, UniProt O60895+Q16602); assay: cAMP assay for in vitro receptor activation, hAM1-R; format: cell-based
Method in brief: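 Read-out is intracellular cAMP as a measure of receptor activation. Cells stably overexpressing hAM1 were subcloned to a monoclonal line, then thawed and seeded at 8000 cells/well in DPBS with 0.05% casein and the phosphodiesterase inhibitor IBMX at 0.5 mM.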

[3] = cAMP assay, hAM1 receptor, read-out: hAM1R EC50

hAM1 receptor, sequence (Q16602 23-461): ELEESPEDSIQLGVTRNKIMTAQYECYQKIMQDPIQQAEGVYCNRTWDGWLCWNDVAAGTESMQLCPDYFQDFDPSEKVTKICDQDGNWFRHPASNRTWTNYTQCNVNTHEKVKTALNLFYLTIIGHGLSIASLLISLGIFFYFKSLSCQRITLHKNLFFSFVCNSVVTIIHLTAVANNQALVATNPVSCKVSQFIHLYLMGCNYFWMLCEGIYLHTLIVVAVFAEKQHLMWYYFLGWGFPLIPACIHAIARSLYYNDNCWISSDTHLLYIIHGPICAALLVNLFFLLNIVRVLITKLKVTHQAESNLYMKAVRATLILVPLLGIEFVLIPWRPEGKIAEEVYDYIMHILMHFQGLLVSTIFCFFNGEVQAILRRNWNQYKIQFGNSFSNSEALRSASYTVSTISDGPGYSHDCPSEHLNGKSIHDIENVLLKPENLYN
hAM1 receptor, sequence (O60895 43-175 partner): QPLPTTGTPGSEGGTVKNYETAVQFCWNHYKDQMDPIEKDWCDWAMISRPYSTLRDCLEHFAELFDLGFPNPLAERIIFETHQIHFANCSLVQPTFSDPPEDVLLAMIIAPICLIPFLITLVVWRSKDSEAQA

Row | SMILES | Max ThT signal (%) [1] [%] | EC50 [2, 3] [µM] | EC50 [2] [µM]
1 | CC[C@H](C)[C@H](NC(=O)[C@H](CCC(N)=O)NC(=O)[C@H](Cc1c[nH]cn1)NC(=O)[C@H](C)NC(=O)[C@H](CC(C)C)NC(=O)[C@H](CCCNC(=N)N)NC(=O)[C@H](CCC(N)=O)NC(=O)[C@@H](NC(=O)[C@@H](NC(=O)[C@@H]1CSSC[C@H](NC(=O)CN)C(=O)N[C@@H](CCCNC(=N)N)C(=O)N[C@@H]([C@@H](C)O)C(=O)NCC(=O)N[C@@H]([C@@H](C)O)C(=O)N1)[C@@H](C)O)C(C)C)C(=O)N[C@@H](C)C(=O)N[C@@H](CCC(N)=O)C(=O)N[C@@H](Cc1ccccc1)C(=O)N[C@H](C(=O)N[C@@H](CC(=O)O)C(=O)N[C@@H](CCCCN)C(=O)N[C@@H](Cc1ccccc1)C(=O)N[C@@H](CCCCN)C(=O)N[C@@H](CC(=O)O)C(=O)N[C@@H](CC(N)=O)C(=O)N[C@H](C(=O)N[C@@H](C)C(=O)N1CCC[C@H]1C(=O)N[C@@H](CCCNC(=N)N)C(=O)N[C@@H](CO)C(=O)N[C@@H](CCCCN)C(=O)N[C@H](C(=O)N[C@@H](CO)C(=O)N1CCC[C@H]1C(=O)N[C@@H](CCC(N)=O)C(=O)N[C@H](C(=O)N1C[C@H](O)C[C@H]1C(N)=O)[C@@H](C)O)[C@@H](C)CC)C(C)C)[C@@H](C)O [compound 196] (H-GCRTGTCTVQRLAHQIAQFTDKFKDNVAPRSKISPQT[Hyp]-NH2; disulfide 2-7; N-terminus assumed) | 0.500 | > 5 | –
2 | CC[C@H](C)[C@H](NC(=O)[C@H](CCC(N)=O)NC(=O)[C@H](Cc1c[nH]cn1)NC(=O)[C@H](C)NC(=O)[C@H](CC(C)C)NC(=O)[C@H](CCCNC(=N)N)NC(=O)[C@H](CCC(N)=O)NC(=O)[C@@H](NC(=O)[C@@H](NC(=O)[C@@H]1CSSC[C@H](NC(=O)CN)C(=O)N[C@@H](CCCNC(=N)N)C(=O)N[C@@H]([C@@H](C)O)C(=O)NCC(=O)N[C@@H]([C@@H](C)O)C(=O)N1)[C@@H](C)O)C(C)C)C(=O)N[C@@H](Cc1ccc(O)cc1)C(=O)N[C@@H](CCC(N)=O)C(=O)N[C@@H](Cc1ccccc1)C(=O)N[C@H](C(=O)N[C@@H](CC(=O)O)C(=O)N[C@@H](CCCCN)C(=O)N[C@@H](Cc1ccccc1)C(=O)N[C@@H](CCCCN)C(=O)N[C@@H](CC(=O)O)C(=O)N[C@@H](CC(N)=O)C(=O)N[C@H](C(=O)N[C@@H](C)C(=O)N1CCC[C@H]1C(=O)N[C@@H](CCCNC(=N)N)C(=O)N[C@@H](CO)C(=O)N[C@@H](CCCCN)C(=O)N[C@H](C(=O)N[C@@H](CO)C(=O)N1CCC[C@H]1C(=O)N[C@@H](CCC(N)=O)C(=O)N1CCC[C@H]1C(=O)N1C[C@H](O)C[C@H]1C(N)=O)[C@@H](C)CC)C(C)C)[C@@H](C)O [compound 203] (H-GCRTGTCTVQRLAHQIYQFTDKFKDNVAPRSKISPQP[Hyp]-NH2; disulfide 2-7; N-terminus assumed) | 1.200 | – | > 5
3 | CC(C)C[C@H](NC(=O)[C@H](CCCNC(=N)N)NC(=O)[C@H](CCC(N)=O)NC(=O)[C@@H](NC(=O)[C@@H](NC(=O)[C@@H]1CSSC[C@H](NC(=O)[C@@H](N)CCCCN)C(=O)N[C@@H](CC(N)=O)C(=O)N[C@@H]([C@@H](C)O)C(=O)N[C@@H](C)C(=O)N[C@@H]([C@@H](C)O)C(=O)N1)[C@@H](C)O)C(C)C)C(=O)N[C@@H](C)C(=O)N[C@@H](Cc1c[nH]cn1)C(=O)N[C@@H](CCC(N)=O)C(=O)N[C@@H](C)C(=O)N[C@@H](Cc1ccc(O)cc1)C(=O)N[C@@H](CCC(N)=O)C(=O)N[C@@H](Cc1ccccc1)C(=O)N[C@H](C(=O)N[C@@H](CC(=O)O)C(=O)N[C@@H](CCCCN)C(=O)N[C@@H](CC(=O)O)C(=O)N[C@@H](CCCCN)C(=O)N[C@@H](CC(=O)O)C(=O)N[C@@H](CC(N)=O)C(=O)N[C@H](C(=O)N[C@@H](C)C(=O)N1CCC[C@H]1C(=O)N1CCC[C@H]1C(=O)N[C@H](C(=O)N[C@@H](CC(N)=O)C(=O)N[C@H](C(=O)NCC(=O)N[C@@H](CO)C(=O)N[C@@H](CC(N)=O)C(=O)NCC(=O)N1C[C@H](O)C[C@H]1C(N)=O)C(C)C)[C@@H](C)O)C(C)C)[C@@H](C)O [compound 210] (H-KCNTATCTVQRLAHQAYQFTDKDKDNVAPPTNVGSNG[Hyp]-NH2; disulfide 2-7) | 1.400 | > 5 | –
4 | CC[C@H](C)[C@H](NC(=O)[C@H](CCC(N)=O)NC(=O)[C@H](Cc1c[nH]cn1)NC(=O)[C@H](C)NC(=O)[C@H](CC(C)C)NC(=O)[C@H](CCCNC(=N)N)NC(=O)[C@H](CCC(N)=O)NC(=O)[C@@H](NC(=O)[C@@H](NC(=O)[C@@H]1CSSC[C@H](NC(=O)CN)C(=O)N[C@@H](CCCNC(=N)N)C(=O)N[C@@H]([C@@H](C)O)C(=O)NCC(=O)N[C@@H]([C@@H](C)O)C(=O)N1)[C@@H](C)O)C(C)C)C(=O)N[C@@H](Cc1ccc(O)cc1)C(=O)N[C@@H](CCC(N)=O)C(=O)N[C@@H](Cc1ccccc1)C(=O)N[C@H](C(=O)N[C@@H](CC(=O)O)C(=O)N[C@@H](CCCCN)C(=O)N[C@@H](Cc1ccccc1)C(=O)N[C@@H](CCCCN)C(=O)N[C@@H](CC(=O)O)C(=O)N[C@@H](CC(N)=O)C(=O)N[C@H](C(=O)N[C@@H](C)C(=O)N1CCC[C@H]1C(=O)N[C@@H](CCCNC(=N)N)C(=O)N[C@@H](CO)C(=O)N[C@@H](CCCCN)C(=O)N[C@H](C(=O)N[C@@H](CO)C(=O)N1CCC[C@H]1C(=O)N[C@@H](CCC(N)=O)C(=O)N[C@H](C(=O)N[C@@H](CCSC)C(N)=O)[C@@H](C)O)[C@@H](C)CC)C(C)C)[C@@H](C)O [compound 215] (H-GCRTGTCTVQRLAHQIYQFTDKFKDNVAPRSKISPQTM-NH2; disulfide 2-7) | 0.600 | > 5 | –
5 | CC[C@H](C)[C@H](NC(=O)[C@H](CCCCN)NC(=O)[C@H](CO)NC(=O)[C@H](CCCNC(=N)N)NC(=O)[C@@H]1CCCN1C(=O)[C@H](C)NC(=O)[C@@H](NC(=O)[C@H](CC(N)=O)NC(=O)[C@H](CC(=O)O)NC(=O)[C@H](CCCCN)NC(=O)[C@H](CC(=O)O)NC(=O)[C@H](CCCCN)NC(=O)[C@H](CC(=O)O)NC(=O)[C@@H](NC(=O)[C@H](Cc1ccccc1)NC(=O)[C@H](CCC(N)=O)NC(=O)[C@H](Cc1ccc(O)cc1)NC(=O)[C@H](CC(C)C)NC(=O)[C@H](CCC(N)=O)NC(=O)[C@H](Cc1c[nH]cn1)NC(=O)[C@H](C)NC(=O)[C@H](CC(C)C)NC(=O)[C@H](CCCNC(=N)N)NC(=O)[C@H](CCC(N)=O)NC(=O)[C@@H](NC(=O)[C@@H](NC(=O)[C@@H]1CSSC[C@H](NC(=O)CN)C(=O)N[C@@H](CCCNC(=N)N)C(=O)N[C@@H](Cc2ccccc2)C(=O)NCC(=O)N[C@@H]([C@@H](C)O)C(=O)N1)[C@@H](C)O)C(C)C)[C@@H](C)O)C(C)C)C(=O)N[C@@H](CO)C(=O)N1CCC[C@H]1C(=O)N[C@@H](CCC(N)=O)C(=O)N[C@H](C(=O)N1C[C@H](O)C[C@H]1C(N)=O)[C@@H](C)O [compound 217] (H-GCRFGTCTVQRLAHQLYQFTDKDKDNVAPRSKISPQT[Hyp]-NH2; disulfide 2-7; N-terminus assumed) | 13.800 | > 5 | –
6 | CC[C@H](C)[C@H](NC(=O)[C@H](CCC(N)=O)NC(=O)[C@H](Cc1c[nH]cn1)NC(=O)[C@H](C)NC(=O)[C@H](CC(C)C)NC(=O)[C@H](CCCNC(=N)N)NC(=O)[C@H](CCC(N)=O)NC(=O)[C@@H](NC(=O)[C@@H](NC(=O)[C@@H]1CSSC[C@H](NC(=O)CN)C(=O)N[C@@H](CCCNC(=N)N)C(=O)N[C@@H]([C@@H](C)O)C(=O)NCC(=O)N[C@@H]([C@@H](C)O)C(=O)N1)[C@@H](C)O)C(C)C)C(=O)N[C@@H](Cc1ccc(O)cc1)C(=O)N[C@@H](CCC(N)=O)C(=O)N[C@@H](Cc1ccccc1)C(=O)N[C@H](C(=O)N[C@@H](CC(=O)O)C(=O)N[C@@H](CCCCN)C(=O)N[C@@H](Cc1ccccc1)C(=O)N[C@@H](CCCCN)C(=O)N[C@@H](CC(=O)O)C(=O)N[C@@H](CC(N)=O)C(=O)N[C@H](C(=O)N[C@@H](C)C(=O)N1CCC[C@H]1C(=O)N[C@@H](CCCNC(=N)N)C(=O)N[C@@H](CO)C(=O)N[C@@H](CCCCN)C(=O)N[C@H](C(=O)N[C@@H](CO)C(=O)N1CCC[C@H]1C(=O)N[C@@H](CCC(N)=O)C(=O)N[C@@H](C)C(=O)N1C[C@H](O)C[C@H]1C(N)=O)[C@@H](C)CC)C(C)C)[C@@H](C)O [compound 218] (H-GCRTGTCTVQRLAHQIYQFTDKFKDNVAPRSKISPQA[Hyp]-NH2; disulfide 2-7; N-terminus assumed) | 4.500 | > 5 | –
7 | CC[C@H](C)[C@H](NC(=O)[C@H](CCC(N)=O)NC(=O)[C@H](Cc1c[nH]cn1)NC(=O)[C@H](C)NC(=O)[C@H](CC(C)C)NC(=O)[C@H](CCCNC(=N)N)NC(=O)[C@H](CCC(N)=O)NC(=O)[C@@H](NC(=O)[C@@H](NC(=O)[C@@H]1CSSC[C@H](NC(=O)CN)C(=O)N[C@@H](CCCNC(=N)N)C(=O)N[C@@H]([C@@H](C)O)C(=O)NCC(=O)N[C@@H]([C@@H](C)O)C(=O)N1)[C@@H](C)O)C(C)C)C(=O)N[C@@H](Cc1ccc(O)cc1)C(=O)N[C@@H](CCC(N)=O)C(=O)N[C@@H](Cc1ccccc1)C(=O)N[C@H](C(=O)N[C@@H](CC(N)=O)C(=O)N[C@@H](CCCCN)C(=O)N[C@@H](CC(=O)O)C(=O)N[C@@H](CCCCN)C(=O)N[C@@H](CC(=O)O)C(=O)N[C@@H](CC(N)=O)C(=O)N[C@H](C(=O)N[C@@H](C)C(=O)N1CCC[C@H]1C(=O)N[C@@H](CCCNC(=N)N)C(=O)N[C@@H](CO)C(=O)N[C@@H](CCCCN)C(=O)N[C@H](C(=O)N[C@@H](CO)C(=O)N1CCC[C@H]1C(=O)N[C@@H](CCC(N)=O)C(=O)N[C@@H](Cc1c[nH]cn1)C(=O)N1C[C@H](O)C[C@H]1C(N)=O)[C@@H](C)CC)C(C)C)[C@@H](C)O [compound 219] (H-GCRTGTCTVQRLAHQIYQFTNKDKDNVAPRSKISPQH[Hyp]-NH2; disulfide 2-7; N-terminus assumed) | 0.700 | 4.25 | –

Source: patent publication US12139520B2 (priority 2020, dated 2024)
